{"source": "patent US7314939B2", "about": "“Compositions and methods for inhibiting TGF-β” (Millennium Pharmaceuticals, Inc., priority 2003, dated 2008)", "key": {"[1]": {"tested_on": "TGF-β stimulated normal human lung fibroblasts (NHLF)", "test": "Cell-based assays in TGF-β stimulated NHLF (P-Smad2, PAI-1, collagen, fibronectin)", "conditions": "Fibroblast, P-Smad2, PAI-1, collagen and fibronectin assays", "procedure": "ELISA Assay for TGF-β Stimulated Smad2 Phosphorylation\nSerum-starved normal human lung fibroblasts (NHLF) in 24-well plate were treated with or without different concentrations of testing compounds for 30 min. The cells were then stimulated with TGF-β for one hour. After fixing, permeabilizing, and blocking, the cells were incubated with phospho-Smad2 specific antibodies followed by HRP-conjugated secondary antibody. The extent of Smad2 phosphorylation was then detected using HRP substrate and read with an ELISA plate reader. IC50 for each testing compound was determined using the PRISM3 program.\nELISA Assay for TGF-β Stimulated PAI-1 Secretion\nSerum-starved NHLF in 24-well plates were treated with or without different concentrations of testing compounds for 30 min. The cells were then stimulated with TGF-β and incubated in a 37° C. incubator for 24 hours. The media were collected and added to 96-well plates coated with anti-PAI-1 antibodies. The secreted PAI-1 was then detected with another PAI-1 specific antibody followed by HRP-conjugated secondary antibody. The secretion of PAI-1 was detected using HRP substrate and read with an ELISA plate reader. IC50 for each testing compound was determined using the PRISM3 program.\nSIRCOL Collagen Assay for TGF-β Stimulated Cells\nSerum-starved NHLF in 24-well plates were treated with or without different concentrations of testing compounds for 30 min. The cells were then stimulated with TGF-β and incubated for 24 hours. The media were collected and SIRCOL dye reagent was added. After spinning and washing, the pellets were resuspended in alkali reagent and read with an ELISA plate reader. IC50 for each testing compound was determined using the PRISM3 program.\nDetection of TGF-β Stimulated Fibronectin Expression\nSerum-starved NHLF in 24-well plates were treated with or without different concentrations of testing compounds for 30 min. The cells were then stimulated with TGF-β and incubated for 24 hours. […] The signal was then detected using an ELISA reader. IC50 for each testing compound was determined using the PRISM3 program. […]"}, "[2]": {"molecular_target": "T1, ALK5 (Homo sapiens, UniProt P36897)", "T1 construct": "An expression construct containing full-length ALK5 C-terminally tagged with HA was transfected into COS7 cells; made in house; host or cells: COS7 cells (transfected; isolated by anti-HA immunoprecipitation)", "T1 sequence (P36897 34-503)": "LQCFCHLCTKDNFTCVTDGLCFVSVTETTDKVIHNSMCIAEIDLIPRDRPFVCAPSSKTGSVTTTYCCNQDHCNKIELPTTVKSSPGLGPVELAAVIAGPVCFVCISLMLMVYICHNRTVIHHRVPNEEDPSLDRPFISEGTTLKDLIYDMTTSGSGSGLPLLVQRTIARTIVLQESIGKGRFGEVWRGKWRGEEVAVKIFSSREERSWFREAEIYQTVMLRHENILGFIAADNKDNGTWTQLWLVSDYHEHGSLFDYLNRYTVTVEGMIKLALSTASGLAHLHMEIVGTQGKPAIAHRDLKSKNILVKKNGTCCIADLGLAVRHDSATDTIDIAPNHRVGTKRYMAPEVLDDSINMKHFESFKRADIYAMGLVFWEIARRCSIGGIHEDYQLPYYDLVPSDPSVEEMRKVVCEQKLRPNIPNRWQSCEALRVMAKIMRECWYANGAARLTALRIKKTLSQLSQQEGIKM", "test": "TGF-β (ALK5) phosphorylation: GST-ALK5 autophosphorylation screen and in vitro kinase of HA-ALK5 (IC50)", "format": "biochemical", "excerpt": "The autophosphorylation of GST-ALK5 was developed for primary screening of the compounds that inhibit TGF-β signaling by interacting with ALK5. HA-ALK5 assay is a secondary screening assay to confirm the inhibitory compounds that were selected from the primary screening, and also for the determination of IC50 for each compound.\nAutophosphorylation Assay of GST-ALK5\nThe cytoplasmic domain of ALK5 was fused to glutathione S-transferase (GST) and the GST-ALK5 fusion protein was expressed in a baculovirus expression system. GST-ALK5 was isolated with glutathione Sepharose 4B beads (Pharmacia Biotech, Sweden) and stored at −80° C. until use.\nFor detection of GST-ALK5 autophosphorylation and screening of inhibitory compounds, an aliquot of GST-ALK5 in 1× kinase buffer including [^33P]-γ-ATP was added to 96-well plates in the presence or absence of compounds. The mixture was then incubated at room temperature for 30 min and transferred to each well of a Filterplate with vacuum. The Filterplate was then washed 3 times and radioactivity in each well was counted in a Packard TopCount.\nIn Vitro Kinase of HA-ALK5\nAn expression construct containing full-length ALK5 C-terminally tagged with HA was transfected into COS7 cells, and HA-ALK5 was isolated by immunoprecipitation with anti-HA antibodies. Aliquots of immunoprecipitated HA-ALK5 in 1× kinase buffer plus [^33P]-γ-ATP was added to 96-well plates in the presence or absence of different concentrations of testing compounds, and incubated at room temperature for 60 min. The reaction mixture was then transferred to a Filterplate. The plate was washed three times and radioactivity in each well counted. IC50 for each compound was determined using the Prism3 program."}}, "data": [{"smiles": "Fc1c(-c2cccc(Cl)c2)nc2ccccc2c1Nc1ccncc1", "note": "[Compound 7, [2-(3-Chloro-phenyl)-3-fluoro-quinolin-4-yl]-pyridin-4-yl-amine]", "values": [{"measurement": "IC50", "setting": "[1]", "result": "< 10", "unit": "µM"}, {"measurement": "IC50", "setting": "[2]", "result": "< 10", "unit": "µM"}]}, {"smiles": "Fc1c(-c2ccc(Cl)s2)nc2ccccc2c1Nc1ccncc1", "note": "[Compound 51, [2-(5-Chloro-thiophen-2-yl)-3-fluoro-quinolin-4-yl]-pyridin-4-yl-amine]", "values": [{"measurement": "IC50", "setting": "[1]", "result": "< 10", "unit": "µM"}, {"measurement": "IC50", "setting": "[2]", "result": "< 10", "unit": "µM"}]}, {"smiles": "Cc1ccc(-c2nc3ccccc3c(Nc3ccncc3)c2F)o1", "note": "[Compound 55, [3-Fluoro-2-(5-methyl-furan-2-yl)-quinolin-4-yl]-pyridin-4-yl-amine]", "values": [{"measurement": "IC50", "setting": "[1]", "result": "< 10", "unit": "µM"}, {"measurement": "IC50", "setting": "[2]", "result": "< 10", "unit": "µM"}]}]}
